{"source": "patent US20160159778A1", "about": "“NOVEL UREIDO DERIVATIVES OF NAPHTHALENESULFONIC ACIDS” (NeED PHARMACEUTICALS S.r.l., priority 2013, published 2016)", "assay_type_in_all_cases": "cell-based", "key": {"[1]": {"tested_on": "HIV-1 IIIB (strain using CXCR4)", "assay": "HIV-1 IIIB replication in PHA-activated peripheral blood mononuclear cells (p24 in supernatant)", "conditions": "for inhibition of replication of HIV-1 IIIB: PBMC", "experimental": "(§1) The compound (VII) has been tested for its ability to modulate the viral replication of HIV-1, both of a strain using CXCR4 (IIIB) and a strain using CCR5 (Bal) as co-receptor, in addition to the primary receptor CD4.\n(§2) For the in-vitro infections primary cells have been used, specifically peripheral blood mononuclear cells from healthy donors pre-activated for 48 hours through a mitogenic stimulus (phytohemagglutinin) to allow for the infection by HIV-1. The cells have been incubated with IIIB and Bal viruses in absence or in presence of scalar concentrations of compound (VII) for 30 minutes at 37° C., then they have been washed to remove the excess virus, plated in triplicate in culture microplates and the compound VII has been re-added to the wells, in the test concentrations. The control culture has been set up in presence of dimethylsulfoxyde (DMSO), the compound in which the compound VII has been dissolved, in order to more correctly evaluate a net effect of the compound. The viral replication has been evaluated by measuring the structural protein of HIV-1 p24 (expressed in ng/ml) by an immune-enzymatic test carried out on the culture supernatants harvested on days 4 and 7 post-infection.\n(§3) The graphs show the mean values of the culture triplicate with the standard deviation on post-infection days 4 and 7."}, "[2]": {"tested_on": "HIV-1 Bal (strain using CCR5)", "assay": "HIV-1 Bal replication in PHA-activated peripheral blood mononuclear cells (p24 in supernatant)", "conditions": "PBMC", "experimental": "as §1, §2, §3"}, "[3]": {"tested_on": "fusion mediated by gp120 of HIV-1 using CXCR4", "assay": "gp120-mediated cell-cell fusion assay, target cells with CD4 and CXCR4 (colorimetric, OD 570 nm)", "from_the_text": "(§4) In order to evaluate on which step of the complex HIV-1 replication cycle the compound VII acts according to the present invention, a sophisticated method, schematized in FIG. 2, has been used, specifically only focusing on the entry step of HIV-1 in target cells.\n(§5) Briefly, a colorimetric reaction is developed when two populations of properly engineered cells meet and in particular a donor, carrying on the surface the glycoprotein of HIV-1 gp120 and a target, together with the primary receptor CD4 and with one of the co-receptors, CXCR4 or CCR5. In this case there is a fusion of the cells and the polymerase T7 can pass from the donor cell to the target one in which it triggers the transcription of beta-galactosidase with subsequent protein translation. Thus the latter is able to perform its enzymatic action in the presence of the convenient substrate (CPRG, chlorophenol red-3-D galactopyranoside) developing a colorimetric reaction measured by detection of optical density (OD) at 570 nm.\n(§6) In the first one, the target cells are mouse fibroblasts (3T3 in FIG. 3 A/B), on the contrary in the second one the target cells are human epithelial cells (HeLa, in FIG. 3 C/D). The graphs show the mean values of the culture triplicate with the standard deviation."}, "[4]": {"tested_on": "fusion mediated by gp120 of HIV-1 using CCR5", "assay": "gp120-mediated cell-cell fusion assay, target cells with CD4 and CCR5 (colorimetric, OD 570 nm)", "conditions": "target cells 3T3 mouse fibroblasts and HeLa human epithelial cells (FIG. 3 B/D)", "from_the_text": "as §4, §5, §6"}, "[5]": {"conditions": "0.1 μM, p24 on days 4 and 7 post-infection (FIG. 1C/D)"}, "[6]": {"conditions": "1 μM, p24 on days 4 and 7 post-infection (FIG. 1C/D)"}, "[7]": {"conditions": "30, 10 and 3 μM, p24 on days 4 and 7 post-infection (FIG. 1A/B)"}}}
{"smiles": "Cn1cc(NC(=O)c2cc3cc(NC(=O)Nc4ccc5c(c4)cc(C(=O)Nc4cc(C(=O)Nc6ccc7cc(S(=O)(=O)O)cc(S(=O)(=O)O)c7c6)n(C)c4)n5C)ccc3n2C)cc1C(=O)Nc1ccc2cc(S(=O)(=O)O)cc(S(=O)(=O)O)c2c1", "note": "[compound (VII)]", "values": [{"measurement": "inhibition of replication of HIV-1 IIIB", "setting": "[1]; [5]", "value": "not more effective"}, {"measurement": "inhibition of replication of HIV-1 IIIB", "setting": "[1]; [6]", "value": "inhibited completely"}, {"measurement": "inhibition of replication of HIV-1 IIIB", "setting": "[1]; [7]", "value": "completely inhibited"}, {"measurement": "relative effectiveness in replication inhibition, CXCR4-using versus CCR5-using virus", "setting": "[1]; comparison of IIIB with Bal at 1 μM", "value": "higher effectiveness of the compound against viruses using the chemokine receptor CXCR4"}, {"measurement": "inhibition of replication of HIV-1 Bal", "setting": "[2]; [5]", "value": "not more effective"}, {"measurement": "inhibition of replication of HIV-1 Bal", "setting": "[2]; [6]", "value": "almost totally lost the inhibitory ability"}, {"measurement": "inhibition of replication of HIV-1 Bal", "setting": "[2]; [7]", "value": "completely inhibited"}, {"measurement": "relative potency in fusion inhibition, HIV-1 using CXCR4 versus HIV-1 using CCR5", "setting": "[3]; comparison of CXCR4 (the latter) with CCR5", "value": "more potent against the latter"}, {"measurement": "inhibition of fusion mediated by gp120 of HIV-1 using CXCR4", "setting": "[3]; target cells 3T3 mouse fibroblasts and HeLa human epithelial cells (FIG. 3 A/C)", "value": "able to inhibit, in a way depending on the concentration"}, {"measurement": "inhibition of fusion mediated by gp120 of HIV-1 using CCR5", "setting": "[4]", "value": "able to inhibit, in a way depending on the concentration"}]}
